The values that follow are results of earlier work, collected in patent publication US20120071320A1, “LIQUID AGRICULTURAL FORMULATIONS OF IMPROVED STABILITY” (priority 2010, published 2012).

The conditions of the data set: aqueous buffer solutions, both acidic and basic conditions.

As to `COC(=O)c1sccc1S(=O)(=O)NC(=O)Nc1nc(C)nc(OC)n1` [thifensulfuron methyl], the hydrolysis rate result was “relatively fast”.
